PubChem BioAssay AID1259407 (Chemical Carcinogenesis Research Information System (CCRIS), 2018)
The source made the active and inactive calls. The rule behind the calls is not given here.

Test system: CCRIS mutagenicity, Ames/micronucleus/aberration tests
Test: CCRIS mutagenicity studies
[1] = Test System: AMES SALMONELLA TYPHIMURIUM, Strain/Indicator: TA97, Metabolic Activation: HAMSTER, LIVER, S-9, AROCLOR 1254 (10 OR 30%), Method: PREINCUBATION
[2] = Test System: AMES SALMONELLA TYPHIMURIUM, Strain/Indicator: TA97, Metabolic Activation: NONE, Method: PREINCUBATION
[3] = Test System: AMES SALMONELLA TYPHIMURIUM, Strain/Indicator: TA97, Metabolic Activation: RAT, LIVER, S-9, AROCLOR 1254 (10 OR 30%), Method: PREINCUBATION
[4] = Test System: AMES SALMONELLA TYPHIMURIUM, Strain/Indicator: TA98, Metabolic Activation: HAMSTER, LIVER, S-9, AROCLOR 1254 (10 OR 30%), Method: PREINCUBATION
[5] = Test System: AMES SALMONELLA TYPHIMURIUM, Strain/Indicator: TA98, Metabolic Activation: NONE, Method: PREINCUBATION
[6] = Test System: AMES SALMONELLA TYPHIMURIUM, Strain/Indicator: TA98, Metabolic Activation: RAT, LIVER, S-9, AROCLOR 1254 (10 OR 30%), Method: PREINCUBATION
[7] = Test System: AMES SALMONELLA TYPHIMURIUM, Strain/Indicator: TA100, Metabolic Activation: HAMSTER, LIVER, S-9, AROCLOR 1254 (10 OR 30%), Method: PREINCUBATION
[8] = Test System: AMES SALMONELLA TYPHIMURIUM, Strain/Indicator: TA100, Metabolic Activation: NONE, Method: PREINCUBATION
[9] = Test System: AMES SALMONELLA TYPHIMURIUM, Strain/Indicator: TA100, Metabolic Activation: RAT, LIVER, S-9, AROCLOR 1254 (10 OR 30%), Method: PREINCUBATION
[10] = Test System: AMES SALMONELLA TYPHIMURIUM, Strain/Indicator: TA1535, Metabolic Activation: HAMSTER, LIVER, S-9, AROCLOR 1254 (10 OR 30%), Method: PREINCUBATION
[11] = Test System: AMES SALMONELLA TYPHIMURIUM, Strain/Indicator: TA1535, Metabolic Activation: NONE, Method: PREINCUBATION
[12] = Test System: AMES SALMONELLA TYPHIMURIUM, Strain/Indicator: TA1535, Metabolic Activation: RAT, LIVER, S-9, AROCLOR 1254 (10 OR 30%), Method: PREINCUBATION

## COCCO
[1]
  mutagenic call: inactive; negative
[2]
  mutagenic call: inactive; negative
[3]
  mutagenic call: inactive; negative
Test System: AMES SALMONELLA TYPHIMURIUM, Strain/Indicator: TA97A, Metabolic Activation: NONE, Method: STANDARD PLATE
  mutagenic call: inactive; negative
Test System: AMES SALMONELLA TYPHIMURIUM, Strain/Indicator: TA97A, Metabolic Activation: RAT, LIVER, S-9, AROCLOR 1254, Method: STANDARD PLATE
  mutagenic call: inactive; negative
[4]
  mutagenic call: inactive; negative
[5]
  mutagenic call: inactive; negative
Test System: AMES SALMONELLA TYPHIMURIUM, Strain/Indicator: TA98, Metabolic Activation: NONE, Method: STANDARD PLATE
  mutagenic call: inactive; negative
[6]
  mutagenic call: inactive; negative
Test System: AMES SALMONELLA TYPHIMURIUM, Strain/Indicator: TA98, Metabolic Activation: RAT, LIVER, S-9, AROCLOR 1254, Method: STANDARD PLATE
  mutagenic call: inactive; negative
[7]
  mutagenic call: inactive; negative
[8]
  mutagenic call: inactive; negative
Test System: AMES SALMONELLA TYPHIMURIUM, Strain/Indicator: TA100, Metabolic Activation: NONE, Method: STANDARD PLATE
  mutagenic call: inactive; negative
[9]
  mutagenic call: inactive; negative
Test System: AMES SALMONELLA TYPHIMURIUM, Strain/Indicator: TA100, Metabolic Activation: RAT, LIVER, S-9, AROCLOR 1254, Method: STANDARD PLATE
  mutagenic call: inactive; negative
Test System: AMES SALMONELLA TYPHIMURIUM, Strain/Indicator: TA102, Metabolic Activation: NONE, Method: STANDARD PLATE
  mutagenic call: inactive; negative
Test System: AMES SALMONELLA TYPHIMURIUM, Strain/Indicator: TA102, Metabolic Activation: RAT, LIVER, S-9, AROCLOR 1254, Method: STANDARD PLATE
  mutagenic call: inactive; negative
[10]
  mutagenic call: inactive; negative
[11]
  mutagenic call: inactive; negative
[12]
  mutagenic call: inactive; negative
Test System: CHINESE HAMSTER OVARY, Strain/Indicator: CHO AS52 (GPT)/6-THIOGUANINE, Metabolic Activation: NONE
  mutagenic call: inactive; negative
Test System: CHINESE HAMSTER OVARY, Strain/Indicator: CHO-AS52/6-THIOGUANINE, Metabolic Activation: NONE
  mutagenic call: inactive; negative
Test System: CHINESE HAMSTER OVARY, Strain/Indicator: CHO-K1-BH4 (HGPRT)/6-THIOGUANINE, Metabolic Activation: NONE
  mutagenic call: inactive; negative
Test System: CHINESE HAMSTER OVARY, Strain/Indicator: CHO-K1-BH4 (HGPRT)/6-THIOGUANINE, Metabolic Activation: RAT, LIVER, S-9, AROCLOR 1254
  mutagenic call: inactive; negative

## CN1CCNCC1
[5]
  mutagenic call: inactive; negative
Test System: AMES SALMONELLA TYPHIMURIUM, Strain/Indicator: TA98, Metabolic Activation: RAT, LIVER, S-9, PCB, Method: PREINCUBATION
  mutagenic call: inactive; negative
[8]
  mutagenic call: inactive; negative
Test System: AMES SALMONELLA TYPHIMURIUM, Strain/Indicator: TA100, Metabolic Activation: RAT, LIVER, S-9, PCB, Method: PREINCUBATION
  mutagenic call: inactive; negative

## NC(=O)c1ccccc1
[1]
  mutagenic call: inactive; negative
[2]
  mutagenic call: inactive; negative
[3]
  mutagenic call: inactive; negative
[4]
  mutagenic call: inactive; negative
[5]
  mutagenic call: inactive; negative
[6]
  mutagenic call: inactive; negative
[7]
  mutagenic call: inactive; negative
[8]
  mutagenic call: inactive; negative
[9]
  mutagenic call: inactive; negative
[10]
  mutagenic call: inactive; negative
[11]
  mutagenic call: inactive; negative
[12]
  mutagenic call: inactive; negative

## CC(=O)CC(C)C
[1]
  mutagenic call: inactive; negative
[2]
  mutagenic call: inactive; negative
[3]
  mutagenic call: inactive; negative
Test System: AMES SALMONELLA TYPHIMURIUM, Strain/Indicator: TA98, Metabolic Activation: HAMSTER, LIVER, S-9, AROCLOR 1254 (10%), Method: PREINCUBATION
  mutagenic call: inactive; negative
Test System: AMES SALMONELLA TYPHIMURIUM, Strain/Indicator: TA98, Metabolic Activation: HAMSTER, LIVER, S-9, AROCLOR 1254 (30%), Method: PREINCUBATION
  mutagenic call: inactive; negative
[5]
  mutagenic call: inactive; negative
Test System: AMES SALMONELLA TYPHIMURIUM, Strain/Indicator: TA98, Metabolic Activation: RAT, LIVER, S-9, AROCLOR 1254 (10%), Method: PREINCUBATION
  mutagenic call: inactive; negative
Test System: AMES SALMONELLA TYPHIMURIUM, Strain/Indicator: TA98, Metabolic Activation: RAT, LIVER, S-9, AROCLOR 1254 (30%), Method: PREINCUBATION
  mutagenic call: inactive; negative
Test System: AMES SALMONELLA TYPHIMURIUM, Strain/Indicator: TA98, Metabolic Activation: RAT, LIVER, S-9, AROCLOR 1254, Method: PREINCUBATION
  mutagenic call: inactive; negative
Test System: AMES SALMONELLA TYPHIMURIUM, Strain/Indicator: TA100, Metabolic Activation: HAMSTER, LIVER, S-9, AROCLOR 1254 (10%), Method: PREINCUBATION
  mutagenic call: inactive; negative
Test System: AMES SALMONELLA TYPHIMURIUM, Strain/Indicator: TA100, Metabolic Activation: HAMSTER, LIVER, S-9, AROCLOR 1254 (30%), Method: PREINCUBATION
  mutagenic call: inactive; negative
[8]
  mutagenic call: inactive; negative
Test System: AMES SALMONELLA TYPHIMURIUM, Strain/Indicator: TA100, Metabolic Activation: RAT, LIVER, S-9, AROCLOR 1254 (10%), Method: PREINCUBATION
  mutagenic call: inactive; negative
Test System: AMES SALMONELLA TYPHIMURIUM, Strain/Indicator: TA100, Metabolic Activation: RAT, LIVER, S-9, AROCLOR 1254 (30%), Method: PREINCUBATION
  mutagenic call: inactive; negative
Test System: AMES SALMONELLA TYPHIMURIUM, Strain/Indicator: TA100, Metabolic Activation: RAT, LIVER, S-9, AROCLOR 1254, Method: PREINCUBATION
  mutagenic call: inactive; negative
Test System: AMES SALMONELLA TYPHIMURIUM, Strain/Indicator: TA1535, Metabolic Activation: HAMSTER, LIVER, S-9, AROCLOR 1254 (10%), Method: PREINCUBATION
  mutagenic call: inactive; negative
Test System: AMES SALMONELLA TYPHIMURIUM, Strain/Indicator: TA1535, Metabolic Activation: HAMSTER, LIVER, S-9, AROCLOR 1254 (30%), Method: PREINCUBATION
  mutagenic call: inactive; negative
[11]
  mutagenic call: inactive; negative
Test System: AMES SALMONELLA TYPHIMURIUM, Strain/Indicator: TA1535, Metabolic Activation: RAT, LIVER, S-9, AROCLOR 1254 (10%), Method: PREINCUBATION
  mutagenic call: inactive; negative
Test System: AMES SALMONELLA TYPHIMURIUM, Strain/Indicator: TA1535, Metabolic Activation: RAT, LIVER, S-9, AROCLOR 1254 (30%), Method: PREINCUBATION
  mutagenic call: inactive; negative
Test System: AMES SALMONELLA TYPHIMURIUM, Strain/Indicator: TA1535, Metabolic Activation: RAT, LIVER, S-9, AROCLOR 1254, Method: PREINCUBATION
  mutagenic call: inactive; negative
Test System: AMES SALMONELLA TYPHIMURIUM, Strain/Indicator: TA1537, Metabolic Activation: NONE, Method: PREINCUBATION
  mutagenic call: inactive; negative
Test System: AMES SALMONELLA TYPHIMURIUM, Strain/Indicator: TA1537, Metabolic Activation: RAT, LIVER, S-9, AROCLOR 1254, Method: PREINCUBATION
  mutagenic call: inactive; negative
Test System: AMES SALMONELLA TYPHIMURIUM, Strain/Indicator: TA1538, Metabolic Activation: NONE, Method: PREINCUBATION
  mutagenic call: inactive; negative
Test System: AMES SALMONELLA TYPHIMURIUM, Strain/Indicator: TA1538, Metabolic Activation: RAT, LIVER, S-9, AROCLOR 1254, Method: PREINCUBATION
  mutagenic call: inactive; negative
Test System: MOUSE LYMPHOMA, Strain/Indicator: L5178Y (TK+/TK-), Metabolic Activation: NONE, Method: SUSPENSION/PLATE
  mutagenic call: active; positive
Test System: MOUSE LYMPHOMA, Strain/Indicator: L5178Y (TK+/TK-), Metabolic Activation: RAT, LIVER, S-9, AROCLOR 1242 AND AROCLOR 1254 (2:1), Method: SUSPENSION/PLATE
  mutagenic call: inactive; negative
